Among the test systems are CAKI-1 renal; SK-OV-3 ovarian; NCI-H460 lung; U251 CNS; OVCAR-8 ovarian; UACC-257 melanoma; SN12C renal; RXF 393 renal; HCT-116 colon; UO-31 renal.
Test in all cases: growth of human tumour cells (NCI), 48 h

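1) Cells in 96-well plates. 2) Compound, 48 h, 5 concentrations. 3) Linear interpolation between surrounding doses. 4) Unreached endpoint = highest concentration. Here, GI50 denotes the concentration required for 50% inhibition of growth. TGI denotes the concentration required for complete inhibition of growth.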

These results are taken from PubChem BioAssay (NCI).

Regarding `COc1c(C(=O)/C=C/c2ccccc2)c(O)cc2occc12`, the GI50 was 8.07 µM in the experiment with CAKI-1 renal; 14.1 µM in the experiment with SK-OV-3 ovarian; 3.02 µM with NCI-H460 lung; 4.39 µM in the experiment with U251 CNS; 3.62 µM in the experiment with OVCAR-8 ovarian; 7.01 µM in the experiment with UACC-257 melanoma. The GI50 in the experiment on SN12C renal was 4.48 µM; with RXF 393 renal, 3.56 µM; with HCT-116 colon it was 3.72 µM; in the experiment with UO-31 renal, 3.14 µM. For the same molecule, the TGI came out at 29.9 µM in the experiment on CAKI-1 renal; 36.4 µM with SK-OV-3 ovarian; 8.92 µM in the experiment on NCI-H460 lung; 16.1 µM in the experiment with U251 CNS; 12.5 µM with OVCAR-8 ovarian; 19.7 µM with UACC-257 melanoma. Further, the TGI in the experiment with SN12C renal came to 15.8 µM; in the experiment with RXF 393 renal, 15.6 µM; with HCT-116 colon, 12.5 µM; in the experiment with UO-31 renal it was 11.8 µM.
On to `CC(C)c1c(O)c(O)c2c(c1O)C(=O)C(O)=C1C(C)(C)CCC[C@@]12C`, for which the TGI came to 6.34 µM in the experiment with CAKI-1 renal; 15.6 µM in the experiment with SK-OV-3 ovarian; 10.1 µM in the experiment with NCI-H460 lung; 11.1 µM in the experiment on U251 CNS; 10.2 µM in the experiment with OVCAR-8 ovarian; 8.61 µM in the experiment on UACC-257 melanoma. Moreover, the TGI in the experiment on SN12C renal is 18.7 µM; in the experiment with RXF 393 renal, 9.24 µM; in the experiment with HCT-116 colon it was 11.2 µM; in the experiment on UO-31 renal, 7 µM.
Turning to `O=C(Nc1cc(Cl)c(Cl)cc1Cl)C(=O)C1C(=O)NC(=S)NC1=O`, the TGI in the experiment on CAKI-1 renal, in the experiment on SK-OV-3 ovarian, with NCI-H460 lung, in the experiment on U251 CNS, in the experiment on OVCAR-8 ovarian and with UACC-257 melanoma was over 100 µM in each case. In addition, the TGI in the experiment on SN12C renal, in the experiment with RXF 393 renal, in the experiment with HCT-116 colon and in the experiment on UO-31 renal was over 100 µM throughout.
Regarding `CC/C=C\C[C@H](O)C/C=C1/C(=O)C=C[C@@H]1C/C=C\CCCC(=O)OC`, the GI50 with CAKI-1 renal is 3.11 µM; in the experiment with SK-OV-3 ovarian, 5.37 µM; in the experiment on NCI-H460 lung, 3.26 µM; with U251 CNS it was 1.63 µM; in the experiment on OVCAR-8 ovarian, 2.61 µM; in the experiment on UACC-257 melanoma, 2.36 µM. Also, the GI50 in the experiment with SN12C renal is 2.55 µM; in the experiment on RXF 393 renal, 1.91 µM; in the experiment on HCT-116 colon, 0.572 µM; with UO-31 renal it was 1.75 µM. Moreover, the TGI in the experiment with CAKI-1 renal amounted to 12.7 µM; with SK-OV-3 ovarian it was 15.4 µM; with NCI-H460 lung, 11.2 µM; with U251 CNS it was 4.07 µM; in the experiment with OVCAR-8 ovarian, 11.1 µM; in the experiment with UACC-257 melanoma, 7.09 µM. Besides, the TGI is 10.2 µM in the experiment with SN12C renal, 3.58 µM in the experiment with RXF 393 renal, 2.92 µM with HCT-116 colon and 3.4 µM in the experiment on UO-31 renal.
